Results published in US20060069132A1, “Azolecarboxamide herbicides” (priority 2004, published 2006).

What was measured:
velvetleaf = assay: Test B pre-/postemergence herbicide test; assay type: in vivo, Abutilon theophrasti; details: for Velvetleaf plant response rating: scale 0 (no effect) to 100 (complete control)
Procedure, shortened: (§1)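 Plants compared with untreated controls 13–15 days post-treatment and given a visual 0–100 injury score. Applications: preemergence to seeds; postemergence at 1- to 4-leaf (2–18 cm); paddy species flooded, 2-leaf stage. Vehicle non-phytotoxic, surfactant included.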

ducksalad [1] = assay: Test C flooded paddy test; assay type: in vivo, Heteranthera limosa
barnyardgrass [2] = assay: Test B flooded paddy test; assay type: in vivo, Echinochloa crus-galli; details: 1000 g ai/ha, scale 0 to 100 (0 no effect, 100 complete control)
Procedure, shortened: (§2)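 Read-out: visual comparison with controls, scored 0 to 100, where 100 means complete control and 0 no effect. Formulated chemicals were applied postemergence to plants 2–18 cm tall (1- to 4-leaf), or to flooded-paddy plants at the 2-leaf stage, then held 13 to 15 days under glass.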

rice [3] = assay: Test C flooded paddy test; assay type: in vivo, Oryza sativa
Procedure, shortened: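 Injury scored visually against controls on a 0 (no effect) to 100 (complete control) scale, 12 to 14 days after treatment in greenhouse. Flooded paddy plants treated at 2-leaf stage; postemergence plants at 1- to 4-leaf stage, 2 to 18 cm tall.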

corn = assay: Test B pre-/postemergence herbicide test; assay type: in vivo, Zea mays; details: for Corn plant response rating: scale 0 (no effect) to 100 (complete control)
Procedure, shortened: as §1

large crabgrass = assay: Test B pre-/postemergence herbicide test; assay type: in vivo, Digitaria sanguinalis; details: for Crabgrass, Large plant response rating: scale 0 (no effect) to 100 (complete control)
Procedure, shortened: as §1

lambsquarters = assay: Test B pre-/postemergence herbicide test; assay type: in vivo, Chenopodium album; details: for Lambsquarters plant response rating: scale 0 (no effect) to 100 (complete control)
Procedure, shortened: as §1

barnyardgrass [4] = assay: Test C flooded paddy test; assay type: in vivo, Echinochloa crus-galli
Procedure, shortened: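 Postemergence sprays were applied to plants 2 to 18 cm tall (1- to 4-leaf stage); in the flooded paddy test, barnyardgrass was grown to the 2-leaf stage. After 12 to 14 days in a greenhouse, injury was visually rated against untreated controls on a 0–100 scale (100 = complete control).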

[5] = system: smallflower umbrella sedge; assay: Test C flooded paddy test; assay type: in vivo, Cyperus difformis
ducksalad [6] = assay: Test B flooded paddy test; assay type: in vivo, Heteranthera limosa; details: 1000 g ai/ha, scale 0 to 100 (0 no effect, 100 complete control)
Procedure, shortened: as §2

rice [7] = assay: Test B flooded paddy test; assay type: in vivo, Oryza sativa; details: 1000 g ai/ha, scale 0 to 100 (0 no effect, 100 complete control)
Procedure, shortened: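 Formulated test chemicals went onto postemergence plants measuring 2 to 18 cm, at one to four leaves. For the paddy assay, species had reached two leaves. Scoring took place 13–15 days later by eye, relative to untreated plants, using 0 for no effect up to 100 for full control.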

giant foxtail = assay: Test B pre-/postemergence herbicide test; assay type: in vivo, Setaria faberi; details: for Foxtail, Giant plant response rating: scale 0 (no effect) to 100 (complete control)
Procedure, shortened: as §1

Surinam grass = assay: Test B pre-/postemergence herbicide test; assay type: in vivo, Urochloa decumbens; details: for Surinam Grass plant response rating: scale 0 (no effect) to 100 (complete control)
Procedure, shortened: as §1

wild oat = assay: Test B postemergence herbicide test; assay type: in vivo, Avena fatua; details: scale 0 (no effect) to 100 (complete control)
Procedure, shortened: as §2

[8] = system: small flower umbrella sedge; assay: Test B flooded paddy test; assay type: in vivo, Cyperus difformis; details: 1000 g ai/ha, scale 0 to 100 (0 no effect, 100 complete control)
Procedure, shortened: as §2

wheat = assay: Test B postemergence herbicide test; assay type: in vivo, Triticum aestivum; design: key to Wheat plant response rating: 0 = no effect, 100 = complete control
Procedure, shortened: as §2

barnyardgrass [9] = assay: Test B pre-/postemergence herbicide test; assay type: in vivo, Echinochloa crus-galli; details: for Barnyardgrass plant response rating: scale 0 (no effect) to 100 (complete control)
Procedure, shortened: (§3)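 Pre: seeds sown, then sprayed. Post: 1–4-leaf plants (2–18 cm) sprayed at the same time. Paddy: flooded, treated at 2-leaf stage. Formulation: non-phytotoxic solvent with surfactant. Greenhouse 13–15 days; visual 0–100 score relative to controls.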

morningglory = assay: Test B pre-/postemergence herbicide test; assay type: in vivo, Ipomoea coccinea; details: for Morningglory plant response rating: scale 0 (no effect) to 100 (complete control)
Procedure, shortened: as §3

blackgrass = assay: Test B postemergence herbicide test; assay type: in vivo, Alopecurus myosuroides; details: scale 0 (no effect) to 100 (complete control)
Procedure, shortened: as §2

pigweed = assay: Test B pre-/postemergence herbicide test; assay type: in vivo, Amaranthus retroflexus; details: for Pigweed plant response rating: scale 0 (no effect) to 100 (complete control)
Procedure, shortened: as §1

cocklebur = assay: Test B pre-/postemergence herbicide test; assay type: in vivo, Xanthium strumarium; details: for Cocklebur plant response rating: scale 0 (no effect) to 100 (complete control)
Procedure, shortened: as §3

[10] = 125 g ai/ha, 0 is no effect, 100 is complete control, preemergence
[11] = 125 g ai/ha, visual rating, postemergence
[12] = 125 g ai/ha, scale 0 to 100 (0 no effect, 100 complete control)
[13] = 250 g ai/ha, scale of 0 to 100, 0 is no effect, 100 is complete control
[14] = 500 g ai/ha, visual rating after 12 to 14 days, scale 0 to 100 (0 no effect, 100 complete control)

C#CCNC(=O)c1cccc(NC(=O)c2nn(C(C)(C)C)nc2C)c1 [Compound 394]
Plant response rating (0 to 100 scale), Velvetleaf (velvetleaf; [10]): 0
Velvetleaf plant response rating (velvetleaf; [11]): 10
Velvetleaf plant response rating (velvetleaf; Postemergence, 500 g ai/ha): 30
Ducksalad plant response rating (ducksalad [1]; 62 g ai/ha, scale 0 to 100): 0
Ducksalad plant response rating (ducksalad [1]; [12]): 0
Ducksalad plant response rating (ducksalad [1]; [13]): 10
Plant response rating, Ducksalad (ducksalad [1]; [14]): 45
Barnyardgrass plant response rating (barnyardgrass [2]): 70
Rice plant response rating (rice [3]; 62 g ai/ha, scale 0 to 100): 0
Rice plant response rating (rice [3]; [12]): 0
Rice plant response rating (rice [3]; [13]): 45
Plant response rating, Rice (rice [3]; [14]): 60
Plant response rating (0 to 100 scale), Corn (corn; [10]): 0
Corn plant response rating (corn; [11]): 0
Corn plant response rating (corn; Postemergence, 500 g ai/ha): 10
Plant response rating (0 to 100 scale), Crabgrass, Large (large crabgrass; [10]): 40
Crabgrass, Large plant response rating (large crabgrass; [11]): 10
Crabgrass, Large plant response rating (large crabgrass; Postemergence, 500 g ai/ha): 20
Plant response rating (0 to 100 scale), Lambsquarters (lambsquarters; [10]): 10
Lambsquarters plant response rating (lambsquarters; [11]): 30
Lambsquarters plant response rating (lambsquarters; Postemergence, 500 g ai/ha): 60
Barnyardgrass plant response rating (barnyardgrass [4]; 62 g ai/ha, scale 0 to 100 (0 no effect, 100 complete control)): 0
Barnyardgrass plant response rating (barnyardgrass [4]; [12]): 0
Barnyardgrass plant response rating (barnyardgrass [4]; [13]): 0
Plant response rating, Barnyardgrass (barnyardgrass [4]; [14]): 20
Sedge, Umbrella plant response rating ([5]; 62 g ai/ha, scale 0 to 100): 0
Sedge, Umbrella plant response rating [5, 12]: 35
Sedge, Umbrella plant response rating [5, 13]: 60
Plant response rating, Sedge, Umbrella [5, 14]: 70
Ducksalad plant response rating (ducksalad [6]): 80
Rice plant response rating (rice [7]): 60
Plant response rating (0 to 100 scale), Foxtail, Giant (giant foxtail; [10]): 10
Foxtail, Giant plant response rating (giant foxtail; [11]): 20
Foxtail, Giant plant response rating (giant foxtail; Postemergence, 500 g ai/ha): 30
Plant response rating (0 to 100 scale), Surinam Grass (Surinam grass; [10]): 10
Surinam Grass plant response rating (Surinam grass; [11]): 10
Surinam Grass plant response rating (Surinam grass; Postemergence, 500 g ai/ha): 20
Oat, Wild plant response rating (wild oat; [11]): 0
Oat, Wild plant response rating (wild oat; Postemergence, 500 g ai/ha): 0
Sedge, Umbrella plant response rating [8]: 90
Wheat plant response rating (wheat; 125 g ai/ha, visual rating, scale 0 (no effect) to 100 (complete control), postemergence): 0
Wheat plant response rating (wheat; 500 g ai/ha, scale 0 to 100, 0 no effect, 100 complete control, preemergence): 20
Wheat plant response rating (wheat; Postemergence, 500 g ai/ha, scale 0 (no effect) to 100 (complete control)): 0
Plant response rating (0 to 100 scale), Barnyardgrass (barnyardgrass [9]; [10]): 30
Barnyardgrass plant response rating (barnyardgrass [9]; [11]): 0
Barnyardgrass plant response rating (barnyardgrass [9]; Postemergence, 500 g ai/ha): 10
Plant response rating (0 to 100 scale), Morningglory (morningglory; [10]): 0
Morningglory plant response rating (morningglory; [11]): 20
Morningglory plant response rating (morningglory; Postemergence, 500 g ai/ha): 20
Blackgrass plant response rating (blackgrass; [11]): 0
Blackgrass plant response rating (blackgrass; Postemergence, 500 g ai/ha): 20
Plant response rating (0 to 100 scale), Pigweed (pigweed; [10]): 10
Pigweed plant response rating (pigweed; [11]): 30
Pigweed plant response rating (pigweed; Postemergence, 500 g ai/ha): 60
Plant response rating (0 to 100 scale), Cocklebur (cocklebur; [10]): 20
Cocklebur plant response rating (cocklebur; [11]): 10
Cocklebur plant response rating (cocklebur; Postemergence, 500 g ai/ha): 20
